Source: article PMC12077799, “Fragment-based drug discovery for transthyretin kinetic stabilisers using a novel capillary zone electrophoresis method” (PLOS One, 2025)
Where two headings read alike, the source gives them in different places.

Key:
[1] = target: T1, Human transthyretin (TTR) thyroxine binding sites (Homo sapiens, UniProt P02766); test: TTR CZE Free Probe Peak Height Restoration (FPPHR) assay, 8-ANS displacement; settings: for FPPHR % at 50 μM: compound 50 μM in Running Buffer; for FPPHR % at 50 μM / FPPHR % tested at 10 µM / FPPHR % at 100 μM: 10% minimum for a binder; for FPPHR % tested at 10 µM: compound 10 µM in Running Buffer; for change of free 8-ANS peak height with compound in the Running Buffer: in words, concentrations (e.g. Tafamidis 10 µM, Diphenylamine 250 μM, Verapamil 300 µM, Acetazolamide 500 µM); for FPPHR % at 100 μM: compound 100 μM in Running Buffer
T1 construct: purchased SCIPAC (Sittingbourne, Kent, UK) P171-1
Experimental: CZE assays development and fragment screening were performed on a Beckman P/ACE MDQ capillary electrophoresis system (Beckman Coulter Inc., Brea, CA) operated by 32 Karat™ software. All capillaries (Polymicro Technologies, Phoenix, AZ) used were internally coated with polyvinyl alcohol and of around 30 cm in length, 75 microns in internal diameter. Capillary temperature was maintained at 20 °C by recirculating fluorinated fluid coolant during electrophoresis. Sample trays and buffer trays temperature were maintained at 4°C and ambient respectively. For every electrophoretic run, the capillary was pressure rinsed and prefilled with electrophoresis buffer also known as background electrolyte (termed as Running Buffer hereafter) before injection. After each electrophoretic run, the capillary was rinsed with Running Buffer and H2O by pressure (20 psi for 1 minute). Three Running Buffers (RB), A: 20 mM Tris pH 7.5, 1 mM KCl, 1.62 mM NaCl; B: 20 mM HEPES pH 7.0, 2 mM CaCl2 and C: 20 mM HEPES pH 7.0, 2 mM CaCl2, 1% DMSO were used. All CE traces were analysed by 32Karat™ Software with a built-in automatic peak integration algorithm.
Control 1 Inject Buffer (IB) containing 30 μM 8-ANS was prepared by mixing 1 μL of 3 mM 8-ANS DMSO stock with 99 μL of Running Buffer B in a 0.2 mL PCR tube. Control 2 Inject Buffer was prepared by mixing 1μL of 3 mM 8-ANS DMSO stock with 20 μL of 100 μM tetrameric TTR stock in Running Buffer B and 79 μL of Running Buffer B. The final concentrations (f/c) were 8-ANS 30 μM, TTR 20 μM and 1% DMSO v/v.
The maximum Free Probe Peak Height (Control 1 Peak Height) was determined by Outlet Injection (see Fig 1) of Control 1 with an injection pressure of 0.5 psi for 5 seconds (equivalent to ≈ 20–30 nL). An identical injection of Control 2 provides the minimum Free Probe Peak Height (Control 2 Peak Height) enabling calculation of % of bound and unbound, i.e., free 8-ANS. To determine the 8-ANS peak height in Control 1 and Control 2, the capillary was prefilled with Buffer C and electrophoresis carried out at 10 kV (Normal Polarity, Fig 1) with UV monitoring at 230 nm. For displacement analysis, ligand DMSO stock was diluted in Buffer B and used to fill the capillary as the Running Buffer. Electrophoresis commenced after injection of Control 2, thus the injected 8-ANS-TTR complex migrates inside a capillary filled with the test ligand. The observed 8-ANS peak height is defined as Sample Peak Height and the displaced 8-ANS can be calculated as:
\% of Free Probe Peak Height Restoration= Sample Peak Height−Control 2 Peak Height/Control 1 Peak Height−Control 2 Peak Height

[2] = target: T2, TTR in undiluted normal human reference plasma (Homo sapiens, UniProt P02766); test: 125I-T4 displacement assay in neat normal human plasma; format: binding; settings: for IC50: neat normal human plasma, 4-parameter logistic fit
T2 construct: The TTR in plasma was immunoprecipitated by sheep anti-human prealbumin polyclonal antibody; tissue Precision Biologic Inc., Nova Scotia, Canada
Description: The assay was adapted from one described previously. Briefly, test ligand and ^125I-T4 (Perkin Elmer Inc., Waltham, MA) were mixed with undiluted normal human reference plasma (Precision Biologic Inc., Nova Scotia, Canada). The TTR in plasma was immunoprecipitated by sheep anti-human prealbumin polyclonal antibody (The Binding Site Group Ltd., Birmingham, UK). The immunoprecipitate was washed with buffer and their radioactivity measured with a 2470 WIZARD automatic gamma counter (Perkin Elmer Inc., Waltham, MA). […] Percentage of total radioligand binding for samples of different ligand concentration was then calculated as follows: […]
To calculate IC50 values, percentage of total radioligand binding at different concentration points were entered in SigmaPlot™ 11.0. Titration curves were done in triplicates with a minimum of 5 data points fitted by 4-Parameter Logistic Function.

[3] = target: T3, Human transthyretin (TTR) (Homo sapiens, UniProt P02766); test: Co-crystallisation of TTR-ligand complex, X-ray hit confirmation; format: binding; settings: for ligand electron density, binding sites occupied in co-crystal structure: in words; for Confirmed by X-ray: fragment seen in ligand-omitted difference density at >= 2σ in one or both binding sites, full or partial density
T3 construct: purchased SCIPAC (Sittingbourne, Kent, UK) P171-1
Experimental: Crystals were grown by vapor diffusion using a published crystallisation cocktail (100 mM HEPES pH 7.5, 200 mM CaCl2, 28% v/v PEG400) at 21 °C [29]. The hanging drop contained 1 μL of crystallisation cocktail, 1 μL of diluted ligand and 1 μL of TTR protein solution (85 μM). […] Crystals were harvested and flash cooled in a N2 cryostream or dipped into liquid ethane without cryoprotectant. Data was collected at Diamond Light Source (Oxon, UK) beamline I24, I04 or I04-1 (Pilatus 6M or ADSC Q315) or the European Synchrotron Radiation Facility (ESRF, Grenoble, France) beamline ID29 (Pilatus 6M-F) or in-house (Bruker X8 Diffractometer with APEXII CCD detector). Crystal unit cell was initially indexed by software MOSFLM [30] and LABELIT [31] within the EDNA [32] automatic data processing workflow. Diffraction image integration was performed by XDS [33] and reflection intensities were scaled by SCALA [34] or by PROTEUM2 if collected in-house. Phases were obtained by molecular replacement method using PHASER [35], 1DVQ from the Protein Data Bank (PDB) was used as the search model. Atomic positions of the initial model were refined by REFMAC5 [36]. Model building and ligand fitting was completed using COOT [37]. Model graphics were generated using CCP4MG [38]. Crystallographic statistics of all structures can be found in S4 Table.

TTR = target: T4, TTR (Homo sapiens, UniProt P02766); test: Isothermal titration calorimetry (ITC); format: binding; settings: for Kd: 25 °C, PBS pH 7.8, 3% DMSO
T4 construct: purchased SCIPAC (Sittingbourne, Kent, UK) P171-1
Experimental: All ITC experiments were conducted on an iTC200 calorimeter (GE Healthcare), and the settings were 25 °C, stir at 1000 RPM, 1–2 μL injection spaced with 100–150 seconds, reference power: 6 μcal/sec. Isotherms were fitted using ORIGIN 7 software (OriginLab, MA, USA). To prepare TTR ITC protein solution (5 mL), purified and freeze-dried human TTR was weighted and dissolved in 310 μL of pure water. The reconstituted protein solution was then desalted by spin column (Bio-Rad, Bio-Gel P6) and the eluted volume was transferred to a 15mL falcon tube. The protein solution was further diluted with 10x Phosphate Buffered Saline (PBS, 500 μL), DMSO (150 μL) and water, (f/c: 4.3 mM Na2HPO4, 137 mM NaCl, 2.7 mM KCl, 1.47 mM KH2PO4, 3% DMSO v/v, TTR 19.35–25 μM, pH 7.8). UV A260/280 was measured to obtain the actual protein concentration using a calculated extinction coefficient of 18450 M^-1 cm^-1. To prepare ligand ITC solution (1 mL), 30 μL of ligand stock in DMSO was diluted with 10x PBS (100 μL) and water (f/c: 4.3 mM Na2HPO4, 137 mM NaCl, 2.7 mM KCl, 1.47 mM KH2PO4, 3% DMSO v/v, Ligand 280–600 μM, pH 7.8).

[4] = read-out: Mean 125I-T4 IC50 ± SD (N = 3)
[5] = N = number of non-hydrogen atoms

c1ccc(-c2cn[nH]c2)cc1 [Compound Z1013760930]
FPPHR % at 50 μM [1]: 14.93%

O=C(O)c1ccccc1Nc1ccccc1 [N-Phenylanthranilic Acid, reference compound]
IC50 [2]: 180 ± 61.8 µM | ligand electron density, binding sites occupied in co-crystal structure [3]: occupied both sites

c1cc2cc[nH]c2cn1 [Compound A00010944]
FPPHR % at 50 μM [1]: 3.73%

c1ccc2c(-c3nnc4cnccn34)ccnc2c1 [Compound 86471824]
FPPHR % tested at 10 µM [1]: 10.85% tested at 10 µM

Nc1cc(Cl)cc(Cl)c1 [3,5-Dichloroaniline, reference compound]
IC50 [2]: 802 ± 319 µM | 125I-T4 displacement at plateau ([2]; neat plasma, exemplary curve): 60% | total radioligand binding at plateau ([2]; neat plasma, exemplary curve): around 40% | ligand electron density, binding sites occupied in co-crystal structure [3]: only observed in one site | change of free 8-ANS peak height with compound in the Running Buffer [1]: significant free 8-ANS peak height increase

Cc1n[nH]c(Cl)c1-c1cccc2cccnc12 [SEL101928]
IC50 [2, 4]: 20.4 ± 4.13 µM | Kd (TTR; read-out: ITC Kd1 ± SD (N = 3)): 0.0497 µM | Kd (TTR; read-out: ITC Kd2 ± SD (N = 3)): 0.331 µM | Kd1 LE (Ligand Efficiency, ΔG/N) (TTR; [5]): 0.59 kcal/mol | Kd2 LE (Ligand Efficiency, ΔG/N) (TTR; [5]): 0.52 kcal/mol

Cc1[nH]ncc1-c1ccccc1 [Compound 12T-0222]
FPPHR % at 50 μM [1]: 25.63%

N#Cc1ncnc2nc[nH]c12 [SFL001640]
FPPHR % at 100 μM [1]: 4.78%

c1cc2[nH]ccc2cn1 [Compound 218458]
FPPHR % at 50 μM [1]: 5.03%

c1ccc(Nc2ccccc2)cc1 [Diphenylamine, reference compound]
change of free 8-ANS peak height with compound in the Running Buffer [1]: significant free 8-ANS peak height increase

c1ncc2[nH]cnc2n1 [SFL001639]
FPPHR % at 100 μM [1]: 5.29%

O=C(O)c1ccc2nc(-c3cc(Cl)cc(Cl)c3)oc2c1 [Tafamidis, reference compound]
change of free 8-ANS peak height with compound in the Running Buffer [1]: significant free 8-ANS peak height increase

Nc1cc(Cl)c(O)c(Cl)c1 [4-Amino-2,6-Dichlorophenol, reference compound]
change of free 8-ANS peak height with compound in the Running Buffer [1]: significant free 8-ANS peak height increase

c1ccc2[nH]ccc2c1 [SFL001004]
FPPHR % at 100 μM [1]: 17.18%

N[C@@H](Cc1cc(I)c(Oc2cc(I)c(O)c(I)c2)c(I)c1)C(=O)O [Thyroxine T4, reference compound]
change of free 8-ANS peak height with compound in the Running Buffer [1]: significant free 8-ANS peak height increase

Cc1n[nH]c(N)c1-c1ccccc1 [SFL001561]
IC50 [2, 4]: 488 ± 107 µM | Confirmed by X-ray [3]: Yes 9H7J

Clc1cc2cc[nH]c2cn1 [Compound 217869]
FPPHR % at 50 μM [1]: 12.83%

COc1ccc(CCN(C)CCCC(C#N)(c2ccc(OC)c(OC)c2)C(C)C)cc1OC (stereo not drawn) [Verapamil, reference compound]
change of free 8-ANS peak height with compound in the Running Buffer [1]: changed minimally

CN(C)Cc1c[nH]c2ncccc12 [SFL001519]
FPPHR % at 50 μM [1]: 1.88%

Cc1nn(C)c(N)c1-c1ccccc1 [SFL001562]
FPPHR % at 50 μM [1]: 7.42%

COC(=O)c1c[nH]c2ccccc12 [Compound A00010562]
FPPHR % at 50 μM [1]: 16.40%

Nc1[nH]ncc1-c1ccccc1 [OR1969]
FPPHR % at 50 μM [1]: 13.28%

Clc1ccc2c(-c3cc[nH]n3)ccnc2c1 [Compound 63633004]
FPPHR % tested at 10 µM [1]: 22.71% tested at 10 µM

Nc1ccccc1S(N)(=O)=O [2-Aminobenzenesulphonamide, reference compound]
change of free 8-ANS peak height with compound in the Running Buffer [1]: changed minimally

Nc1[nH]ncc1-c1ccc(Cl)cc1 [Compound 242212]
FPPHR % at 50 μM [1]: 25.65%

Clc1n[nH]c2ccccc12 [Compound A00014954]
FPPHR % at 50 μM [1]: 24.84%

c1cncc(-c2nc3ccccc3[nH]2)c1 [SFL001465]
FPPHR % at 100 μM [1]: 6.22%

c1ccc2nc(-c3cn[nH]c3)ccc2c1 [SFL001536]
FPPHR % at 100 μM [1]: 18.42%

N#Cc1c[nH]c2ccccc12 [SFL000013]
Confirmed by X-ray [3]: Yes 2 Sites, Full, 9H7G | FPPHR % at 50 μM [1]: 18.13% | FPPHR % at 100 μM [1]: 21.53% | FPPHR % at 300 μM ± SD (N = 3) ([1]; fragment 300 μM in Running Buffer, injected 30 μM 8-ANS / 20 μM TTR, hit cut-off 10%): 23.08 ± 6.08%

c1ccc2[nH]ncc2c1 [SFL000101]
FPPHR % at 100 μM [1]: 12.12%

c1cnc2[nH]ccc2c1 [Compound 242506]
FPPHR % at 50 μM [1]: 7.85%

CC(=O)Nc1nnc(S(N)(=O)=O)s1 [Acetazolamide, reference compound]
change of free 8-ANS peak height with compound in the Running Buffer [1]: changed minimally
